{
  "source": "patent US20260146029A1",
  "about": "“METHODS FOR THE TREATMENT OR PROPHYLAXIS OF ENDOMETRIOSIS” (Gesynta Pharma AB, priority 2022, published 2026)",
  "key": {"[1]": {"test_system": "Marmoset monkeys (Callithrix jacchus), established endometriosis", "experiment": "Colour Doppler ultrasonic scanning of blood flow (bladder area, reproductive tract area)", "format": "in vivo", "set-up": "key to Individual data on blood flow bladder / Individual data on blood flow repro tract: 0=blood flow not visible; 1=weak blood flow; 2=medium blood flow; 3=massive blood flow", "settings": "for Individual data on blood flow bladder / Individual data on blood flow repro tract: individual animals 1-8 (one line each), 6.67 mg/kg; for Individual data on blood flow bladder / Individual data on blood flow repro tract / Blood flow bladder, median score / Blood flow repro tract, median score: oral 6.67 mg/kg twice/day; for Blood flow bladder, median score / Blood flow repro tract, median score: median of 8 animals, scale 0-3, baseline median 2", "procedure": "(§1) The substance as depicted below (prepared according to the procedure in WO 2012/022793 A1) was orally administered (as the hydrogen sulphate salt thereof) for 6 weeks to common marmoset monkeys at a dose of 6.67 mg/kg twice/day (calculated based on the free base, with the actual weight of compound administered calculated as required for the hydrogen sulphate salt).\n(§2) The age of the marmosets ranged between 3 and 16 years. All animals were female and had established endometriosis over years. Induction of endometriosis was performed as described in Einspanier et al., Mol Human Reprod., 12(5), 291-9 (2006).\nColour Doppler ultrasonic scanning was done before and 3 times during the treatment period to follow blood flow. Colour doppler scanning was carried out as described by Einspanier (ibid).\nColour Doppler ultrasonic scanning was performed to measure blood flow in the reproductive tract (uterus and ovaries) area as well as in the bladder area.\nIndividual blood flow measurements are provided in Table 1, 0=blood flow not visible, 1=weak blood flow, 2=medium blood flow and 3=massive blood flow."}, "[2]": {"test_system": "Marmoset monkeys (Callithrix jacchus), established endometriosis", "experiment": "Laparotomy assessment of endometriotic lesions (number and size of foci)", "format": "in vivo", "procedure": "as §1, §2\nLaparotomy was carried out twice, seven weeks before treatment start of treatment and immediately after end of treatment. There was a duration of at least 3 months between each laparotomy.\nAfter pre-medication with Göttinger Mischung M II (Ketamin, Xylazin and Atropin mixture), an inhalation anaesthesia with Isofluran was carried out which last in average 60 minutes. The abdomen was opened beside line alba for 1 cm range to visualise the reproductive tract and bladder. The endometriotic lesions were characterized and documented in pictures. During the second laparoptomy samples from the lesions were collected. Postoperative care of the animals was carried out as required by local law. The collected tissue samples were fixed in paraformaldehyde and embedded in paraffin or stored at −80° C. Before abdominal suture, all organs were replaced in their place. All females were separated from their males for some hours due to medical reasons and obtained antibiotics for some days.\nLaparotomy analysis was performed to assess endometriotic lesions."}, "[3]": {"test_system": "Marmoset monkeys (Callithrix jacchus), established endometriosis", "experiment": "Feeding tree behaviour test", "format": "in vivo", "settings": "during treatment, all animals", "description": "(§3) Different behavioural test systems were used to study pain and discomfort, social comfort, memory, learning and activity were set up. All primates used in the study were familiar with the test-systems (for a period of more than 6 months) to confirm that the obtained results are related to the medication and not a learning effect over time.\n(§4) Two test systems were used in the study as described in Arnold et al., J Med Primatol., 40, 317-326 (2011). • 1. Feeding tree • 2. Wisconsin General Testing apparatus (WGTA) Before and during the study documentation of social interaction, such as grooming, were performed.\nThe feeding tree was to test movement activity associated with pain, discomfort and/or distress. The feeding tree offers food at different positions to reach, which requires different levels of movement. If an animal has discomfort, distress or abdominal pain it will not search for food at upper areas or at all. Moreover, systematic search is reduced if memory is impaired. In the setting, each primate had to empty every reward-containing hideouts within 5 minutes to be fully successful. The response of the 8 animals was graded before, during and after treatment on a scale of 0-4 indicting the number of hideouts emptied within 5 minutes."}, "[4]": {"test_system": "Marmoset monkeys (Callithrix jacchus), established endometriosis", "experiment": "Wisconsin General Testing Apparatus (WGTA) memory and learning test", "format": "in vivo", "settings": "during the treatment, all females", "description": "as §3, §4\nMemory and learning of the primates were tested. All animals are train-rewarded for the WGTA. The animal, which is sitting in the transport box, is either trained for special figures or places, which hide the reward. The observer can watch the behaviour of the animal, but the animal cannot see the observer.\nThe 8 animals were tested in the WGTA for memory by remembering either the figure or location of the hidden reward. Wellbeing of a primate is associated with willingness to search for food, which is also included by this test system. The animals have to find the reward underneath the three different figures three times within 5 minutes. Each animal is either trained for the location of the figure or figure itself."}, "[5]": {"test_system": "Marmoset monkeys (Callithrix jacchus), established endometriosis", "experiment": "Social interaction (grooming) observation", "format": "in vivo", "settings": "during treatment compared to before treatment, all animals", "procedure": "as §4\nThe documentation of grooming was carried out by daytime observation. These behaviour observations give information about wellbeing, while grooming is a marker for positive social activity. The social grooming was documented 1 h after breakfast and 1 h after lunch by observing the couples each time for 10 minutes. For each animal, the number of grooming interactions in the observed period was recorded."}, "[6]": {"test_system": "Marmoset monkeys (Callithrix jacchus), established endometriosis", "experiment": "General health status: clinical signs and blood chemistry", "format": "in vivo", "settings": "oral 6.67 mg/kg twice/day for 6 weeks", "procedure": "(§5) All animals were weighed weekly before and during the treatment. Health body checks including clinical signs as well as blood chemistry analysis were carried out in a regular manner by the responsible vet."}, "[7]": {"test_system": "Marmoset monkeys (Callithrix jacchus), established endometriosis", "experiment": "Reproductive cycle monitoring by serum progesterone", "format": "in vivo", "settings": "after treatment", "procedure": "For analysis of serum progesterone concentration to monitor the reproductive cycle, blood was collected weekly before and during treatment. Serum was separated from blood samples by centrifugation (2600 rpm 10 min, Eppendorf Centrifuge 5810 R) within two hours of sampling and stored at minus 80° C."}, "[8]": {"experiment": "Body weight (weighed weekly)", "format": "in vivo, Marmoset monkeys (Callithrix jacchus)", "settings": "during the treatment period; oral 6.67 mg/kg twice/day for 6 weeks", "procedure": "as §5"}, "[9]": {"settings": "Week 7 (EoT), individual animals 1-8 (one line each), oral 6.67 mg/kg twice/day for 6 weeks"}, "[10]": {"settings": "Week 7 (EoT), individual animals 1-8 (one line each), oral 6.67 mg/kg twice/day for 6 weeks, 6.67 mg/kg"}},
  "note": "Where “and” joins values, the source holds several entries; their conditions need not be identical. Equal entries are not always repeated.",
  "data": [
    {"compound": "Cn1c(Nc2c(Cl)ccc(CNC(=O)C(C)(C)C)c2Cl)nc2cc(C(=O)N[C@H]3CC[C@H](C(F)(F)F)CC3)c(OCC(F)F)cc21", "note": "[compound of formula I, 2-{2,6-dichloro-3-[(2,2-dimethyl-propionylamino)-methyl]-phenylamino}-6-(2,2-difluoroethoxy)-1-methyl-1H-benzoimidazole-5-carboxylic acid (trans-4-trifluoromethylcyclohexyl)-amide]", "values": [
      {"measurement": "Individual data on blood flow bladder", "setting": "[1]; Week 1", "value": "3 (3×) and 2 (3×) and 1 (2×)"},
      {"measurement": "Individual data on blood flow repro tract", "setting": "[1]; Week 1", "value": "3 and 2 (5×) and 1 (2×)"},
      {"measurement": "Blood flow bladder, median score", "setting": "[1]; Week 1", "value": 2},
      {"measurement": "Blood flow repro tract, median score", "setting": "[1]; Week 1", "value": 2},
      {"measurement": "Individual data on blood flow bladder", "setting": "[1]; Week 4", "value": "3 and 2 (3×) and 1 (4×)"},
      {"measurement": "Individual data on blood flow repro tract", "setting": "[1]; Week 4", "value": "2 (3×) and 1 (4×) and 0"},
      {"measurement": "Blood flow bladder, median score", "setting": "[1]; Week 4", "value": 1.5},
      {"measurement": "Blood flow repro tract, median score", "setting": "[1]; Week 4", "value": 1},
      {"measurement": "Individual data on blood flow bladder", "setting": "[1]; Week 6", "value": "2 and 1 (7×)"},
      {"measurement": "Individual data on blood flow repro tract", "setting": "[1]; Week 6", "value": "2 (3×) and 1 (3×) and 0 (2×)"},
      {"measurement": "Blood flow in reproductive tract (uterus and ovaries) area and bladder area, result in words", "setting": "[1]; all animals, both areas, oral 6.67 mg/kg twice/day for 6 weeks", "value": "Decreased blood flow"},
      {"measurement": "Number of endometriotic lesions repro tract, lesion size 2-4 mm", "setting": "[2]; [9]", "value": 0},
      {"measurement": "Number of endometriotic lesions repro tract, lesion size >4 mm", "setting": "[2]; [9]", "value": 0},
      {"measurement": "Number of endometriotic lesions on the bladder, Total", "setting": "[2]; [10]", "value": "4 (2×) and 14 and 24 and 7 and 12 and 5 and 10"},
      {"measurement": "Number of endometriotic lesions on the bladder, lesion size 2-4 mm", "setting": "[2]; [10]", "value": "0 (6×) and 3 and 5"},
      {"measurement": "Number of endometriotic lesions on the bladder, lesion size <2 mm", "setting": "[2]; [10]", "value": "0 (4×) and 5 and 12 and 4 and 7"},
      {"measurement": "Number of endometriotic lesions on the bladder, lesion size >4 mm", "setting": "[2]; [10]", "value": "0 (6×) and 3 and 2"},
      {"measurement": "Number of endometriotic lesions on the bladder, lesion size s.p. (visible but not measurable)", "setting": "[2]; [10]", "value": "4 and 2 and 5 (2×) and 7 and 0 and 12 and 3"},
      {"measurement": "Number of endometriotic lesions repro tract, Total", "setting": "[2]; [10]", "value": "0 (2×) and 3 (2×) and 8 and 2 (2×) and 4"},
      {"measurement": "Number of endometriotic lesions repro tract, lesion size <2 mm", "setting": "[2]; [10]", "value": "0 (5×) and 2 (2×) and 4"},
      {"measurement": "Number of endometriotic lesions repro tract, lesion size s.p. (visible but not measurable)", "setting": "[2]; [10]", "value": "0 (2×) and 1 and 4 and 3 and 2 (3×)"},
      {"measurement": "Endometric foci at laparotomy, result in words", "setting": "[2]; all animals, all sizes of foci affected, after 6 weeks of treatment", "value": "Pronounced reduction"},
      {"measurement": "Success rate in the feeding tree (hideouts emptied within 5 minutes, scale 0-4)", "setting": "[3]", "value": "improved"},
      {"measurement": "WGTA success rate of correct figure or location within time", "setting": "[4]", "value": "increased success rate"},
      {"measurement": "Grooming interactions", "setting": "[5]", "value": "increased"},
      {"measurement": "Blood laboratory parameters", "setting": "[6]; before and after treatment", "value": "in the physiological range"},
      {"measurement": "Clinical signs, general health behaviour of the study animals", "setting": "[6]; during the study period, 8 female marmosets", "value": "no changes"},
      {"measurement": "Animals showing irregular cycles", "setting": "[7]; of 8 animals, before therapy 5 irregular cycles and 1 no activity", "value": 2, "unit": "animals"},
      {"measurement": "Animals showing ovarian cycle activity", "setting": "[7]; before therapy 2 of 8 animals showed ovarian cycle activity", "value": "6 out of 8"},
      {"measurement": "Change in body weight", "setting": "[8]", "value": "no significant change"}
    ]}
  ]
}
